Consider four molecules from ChEMBL document CHEMBL1687828, “Extremely drug-resistant Citrobacter freundii isolate producing NDM-1 and other carbapenemases identified in a patient returning from India” (2011).

The subject of assay [1] is Citrobacter freundii. Nature of the assay: Antibacterial activity against drug-resistant Citrobacter freundii isolate producing metallo-beta-lactamase NDM-1 with carbapenemase activity isolated from urine culture of cerebral vascular malformation patient. The assay is classed as functional.
In assay [2] the test system is Citrobacter freundii. In words: Antibacterial activity against drug-resistant Citrobacter freundii isolate producing metallo-beta-lactamase NDM-1 with carbapenemase activity isolated from urine culture of cerebral vascular malformation patient by Etest. It counts as functional, organism-based.

One may read the MIC as the least concentration at which growth counts as inhibited. `C[C@@H](O)[C@H]1C(=O)N2C(C(=O)O)=C(S[C@@H]3CN[C@H](C(=O)Nc4cccc(C(=O)O)c4)C3)[C@H](C)[C@H]12` [ERTAPENEM] had an MIC against Citrobacter freundii [1] greater than 32 µg/mL.
Still for that read-out and setting: next, `C[C@@H](O)[C@H]1C(=O)N2C(C(=O)O)=C(SCCNC=N)C[C@H]12` [IMIPENEM ANHYDROUS]: greater than 32 µg/mL.
Regarding `C[C@@H](O)[C@H]1C(=O)N2C(C(=O)O)=C(S[C@@H]3CN[C@H](C(=O)N(C)C)C3)[C@H](C)[C@H]12` [MEROPENEM], the minimum inhibitory concentration (MIC) in the assay with Citrobacter freundii [1] was greater than 32 µg/mL.
In turn, COLISTIN had a minimum inhibitory concentration (MIC) in the assay with Citrobacter freundii [2] of 0.5 µg/mL.
